Laboratory results from ChEMBL document CHEMBL5500329, “Identification of dihydroquinolizinone derivatives with nitrogen heterocycle moieties as new anti-HBV agents” (Eur J Med Chem, 2024).

Tests used:
HT-22 [1] = assay: Cytotoxicity against mouse HT-22 cells assessed as reduction in cell viability at 30 uM; type: toxicity, cell-based; details: ht-22, 30 µM
HT-22 [2] = assay: Cytotoxicity against mouse HT-22 cells assessed as reduction in cell viability at 10 uM; type: toxicity, cell-based; details: ht-22, 10 µM
Hepatitis B virus [3] = assay: Antiviral activity against Hepatitis B virus assessed as inhibition of HbeAg level; type: functional, organism-based
Hepatitis B virus [4] = assay: Antiviral activity against Hepatitis B virus assessed as inhibition of HbsAg level; type: functional, organism-based
Hepatitis B virus [5] = assay: Antiviral activity against Hepatitis B virus assessed as inhibition of HBV DNA production; type: functional, organism-based
[6] = Cytotoxicity against mouse HT-22 cells assessed as cell viability at 30 uM relative to control; type: toxicity, cell-based; details: read-out: Activity
[7] = Half-life in mouse at 10 mg/kg, po administered as single dose; type: ADME, organism-based; details: in vivo
[8] = Cmax in mouse at 10 mg/kg, po administered as single dose; type: ADME, organism-based; details: in vivo
[9] = Neurotoxicity in mouse HT-22 cells assessed as reduction in neurite length at 30 uM incubated for 48 hrs; type: toxicity, cell-based; details: ht-22, 48 h
[10] = Tmax in mouse at 10 mg/kg, po administered as single dose; type: ADME, organism-based; details: in vivo
[11] = MRT (0 to infinity) in mouse at 10 mg/kg, po administered as single dose; type: ADME, organism-based; details: in vivo
[12] = Neurotoxicity in mouse HT-22 cells assessed as reduction in neurite length at 10 uM; type: toxicity, cell-based; details: ht-22, 10 µM
[13] = Neurotoxicity in mouse DRG neuron assessed as reduction in neurite length at 10 uM incubated for 24 hrs; type: toxicity, cell-based
[14] = AUC (0 to infinity) in mouse at 10 mg/kg, po administered as single dose; type: ADME, organism-based; details: in vivo
[15] = Neurotoxicity in PAPD7-knockout mouse HT-22 cells assessed as reduction in neurite length; type: toxicity, cell-based
[16] = Neurotoxicity in PAPD5-knockout mouse HT-22 cells assessed as reduction in neurite length; type: toxicity, cell-based
[17] = Neurotoxicity in mouse HT-22 cells assessed as reduction in neurite length at 10 to 30 uM incubated for 24 to 48 hrs; type: toxicity, cell-based; details: ht-22, 30 µM, dose lower 10 µM, time lower 24 hrs, dose upper 30 µM, time upper 48 hrs

SMILES	IC50 (Hepatitis B virus [3]) [nM]	IC50 (Hepatitis B virus [4]) [nM]	IC50 (Hepatitis B virus [5]) [nM]	also measured
COc1cc2c(cc1N1CCC3(C1)OCCO3)C[C@@H](C(C)C)n1cc(C(=O)O)c(=O)cc1-2	84	4	–	Activity (HT-22 [1]): Non-Toxic; Activity (HT-22 [2]): Non-Toxic
COc1cc2c(cc1N1CCC(C(=O)O)CC1)CC(C(C)C)n1cc(C(=O)O)c(=O)cc1-2 (stereo not drawn)	> 1000	1240	405	–
COc1cc2c(cc1OCCCN1CCC3(CCOC3)C1)CC(C(C)C)n1cc(C(=O)O)c(=O)cc1-2 (stereo not drawn)	> 1000	193	31	–
COc1cc2c(cc1N1CCC3(CCOC3)C1)CC(C(C)C)n1cc(C(=O)O)c(=O)cc1-2 (stereo not drawn)	62	5	332	–
COc1cc2c(cc1N1CCC3(CCN(C(=O)OC(C)(C)C)CC3)C1)CC(C(C)C)n1cc(C(=O)O)c(=O)cc1-2 (stereo not drawn)	111	16	50	–
COc1cc2c(cc1OCCCN1CCC3(C1)OCCO3)C[C@@H](C(C)C)n1cc(C(=O)O)c(=O)cc1-2	195	23	–	Activity (HT-22 [2]): Non-Toxic; viability at 30 µM [6]: 74.9%
COc1cc2c(cc1N1CC3COCC3C1)CC(C(C)C)n1cc(C(=O)O)c(=O)cc1-2 (stereo not drawn)	236	14	64	–
COc1cc2c(cc1OC1CCC3(CCOCC3)CC1)CC(C(C)C)n1cc(C(=O)O)c(=O)cc1-2 (stereo not drawn)	47	151	38	–
COc1cc2c(cc1OCCCN1CCC3(C1)OCCO3)CC(C(C)C)n1cc(C(=O)O)c(=O)cc1-2 (stereo not drawn)	319	33	47.3	–
COc1cc2c(cc1N1CCC3(CCCO3)CC1)CC(C(C)C)n1cc(C(=O)O)c(=O)cc1-2 (stereo not drawn)	295	27	40	–
COc1cc2c(cc1N1CCC3(CCOCC3)C1)C[C@H](C(C)C)n1cc(C(=O)O)c(=O)cc1-2	875	100	–	–
COc1cc2c(cc1N1CCC(C(F)(F)F)CC1)CC(C(C)C)n1cc(C(=O)O)c(=O)cc1-2 (stereo not drawn)	204	30	80	–
COc1cc2c(cc1N1CCC3(C1)OCCO3)CC(C(C)C)n1cc(C(=O)O)c(=O)cc1-2 (stereo not drawn)	38	1.8	7.6	–
COc1cc2c(cc1N1CCC3(C1)OCCO3)C[C@H](C(C)C)n1cc(C(=O)O)c(=O)cc1-2	668	126	–	–
COc1cc2c(cc1N1CCOCC1)C[C@H](C(C)C)n1cc(C(=O)O)c(=O)cc1-2	> 1000	599	–	–
COc1cc2c(cc1N1CCOCC1)CC(C(C)C)n1cc(C(=O)O)c(=O)cc1-2 (stereo not drawn)	99	8	8	–
COc1cc2c(cc1N1CCC3(CCOCC3)C1)CC(C(C)C)n1cc(C(=O)O)c(=O)cc1-2 (stereo not drawn)	5	0.6	< 1.6	–
COc1cc2c(cc1OC[C@@H]1CCCO1)C[C@@H](C(C)C)n1cc(C(=O)O)c(=O)cc1-2	0.6	0.6	0.6	–
COc1cc2c(cc1OCCCN1CCC3(C1)OCCO3)C[C@H](C(C)C)n1cc(C(=O)O)c(=O)cc1-2	856	189	–	–
COc1cc2c(cc1N1CCOCC1)C[C@@H](C(C)C)n1cc(C(=O)O)c(=O)cc1-2	287	23	–	Activity (HT-22 [1]): Non-Toxic; half-life [7]: 2.09 h; Cmax [8]: 7620 ng/mL; Activity [9]: Non-Toxic; Tmax [10]: 0.58 h; MRT inf [11]: 2.69 h; Activity [12]: Non-Toxic; Activity (HT-22 [2]): Non-Toxic; Activity [13]: Non-Toxic; AUC(0-inf) [14]: 23400 ng·h/mL
COCCCOc1cc2c(cc1OC)-c1cc(=O)c(C(=O)O)cn1[C@H](C(C)C)C2	91	5	86	Activity (HT-22 [1]): Non-Toxic; half-life [7]: 2.39 h; Cmax [8]: 6630 ng/mL; Activity [15]: Toxic; Tmax [10]: 0.42 h; MRT inf [11]: 1.66 h; Activity (HT-22 [2]): Non-Toxic; Activity [16]: Toxic; Activity [17]: Toxic; AUC(0-inf) [14]: 10800 ng·h/mL
COc1cc2c(cc1OCCCN1CCC3(CCCO3)CC1)CC(C(C)C)n1cc(C(=O)O)c(=O)cc1-2 (stereo not drawn)	> 1000	62	217	–
COc1cc2c(cc1N1CCC(O)CC1)CC(C(C)C)n1cc(C(=O)O)c(=O)cc1-2 (stereo not drawn)	> 1000	41	300	–
COc1cc2c(cc1N1CCC3(CC1)OCCO3)CC(C(C)C)n1cc(C(=O)O)c(=O)cc1-2 (stereo not drawn)	87	12	0.5	–
COc1cc2c(cc1N1CCC3(CCOCC3)C1)C[C@@H](C(C)C)n1cc(C(=O)O)c(=O)cc1-2	71	5	–	Activity (HT-22 [1]): Non-Toxic; Activity (HT-22 [2]): Non-Toxic
